Test results: article PMC9132363 (Journal of Medicinal Chemistry, 2022)
Counter-ions that a name gives are not always drawn. Like-named read-outs stand apart in the source and are kept apart here.

Tests used:
[1] = test system: NRF2; assay: 3×ARE-LUC luciferase reporter assay; format: cell-based, human; details: for fold induction at 20 µM / fold induction at 6 µM / fold induction at 60 µM: Homo sapiens, 16 h; for NRF2 induction, CD (concentration needed to double luciferase expression): 3×ARE-LUC; for activation of the NRF2 reporter: in words, 6, 20 and 60 μM
Protocol: Transient transfections of HEK293T cells were performed with the expression vectors for TK-Renilla (Promega, Madison, […]) and the expression vector ARE-LUC (Dr. J. Alam, Dept. of Molecular Genetics, Ochsner Clinic Foundation, New Orleans, LA). Cells were seeded on 24-well plates (75,000 cells per well), cultured for 16 h, and transfected using calcium phosphate. Eight hours after transfections, cells were treated with 3 different concentrations of the compounds (6, 20, and 60 μM). […] After 16 h, the cells were lysed and assayed with a dual-luciferase assay system (Promega) according to the manufacturer’s instructions. Relative light units were measured in a GloMax 96 microplate luminometer with dual injectors (Promega).

[2] = biological target: ROCK-II (ROKa) (Rattus norvegicus, UniProt Q62868); assay: ROCK inhibition studies (33P-ATP, Long S6 substrate peptide); format: biochemical; details: for remaining activity at 10 µM: 0.5 h, supplementary CSV, read-out: ROCK2 activity @ 10microM; for IC50: Table 3, read-out: ROCK2 inhibition IC50; for ROCK2 inhibition potency compared with fasudil: in words
Protocol: ROCK-II (ROKa) (5–20 mU diluted in 50 mM Tris pH 7.5, 0.1 mM EGTA, 0.1% 2-mercaptoethanol, and 1 mg/mL BSA) was assayed against the Long S6 substrate peptide ([…]) in a final volume of 25.5 μL containing 50 mM Tris pH 7.5, 0.1 mM EGTA, 30 μM Long S6 substrate peptide, 10 mM magnesium acetate, and 0.02 mM [33P-g-ATP] (50–1000 cpm/pmol) and incubated for 30 min at room temperature. Assays were stopped by addition of 5 μL of 0.5 M (3%) orthophosphoric acid and then harvested onto P81 Unifilter plates with a wash buffer of 50 mM orthophosphoric acid.

[3] = DPPH radical scavenging assay; format: physicochemical; details: for EC50: 80% MeOH, 30 min, 517 nm, read-out: Radical scavenging activity EC50 (DPPH method); for IC50: supplementary CSV
Protocol: The antioxidant activity was determined by the 2,2-diphenyl-1-picrylhydrazyl hydrate (DPPH) assay.[65]−[67] All the measurements were performed in an 80% MeOH solution, with the final reaction volume being 3 mL. A stock of DPPH solution in DMSO (10^–2 M) was prepared and stored at −20 °C, and the same procedure was performed with the antioxidant solution. Then, the DPPH stock solution was diluted to 2 mL with a final concentration of 150 μM (final volume of 3 mL and final concentration of 100 μM). The antioxidant stock was sequentially diluted to 1 mL at 3, 9, 30, 90, and 300 μM (final volume of 3 mL and final concentrations of 1, 3, 10, 30, and 100 μM). The mixture was incubated at room temperature for 30 min. Once this time had passed, the absorbance was measured in a spectrophotometer at 517 nm. Trolox, caffeic acid, and ferulic acid were used as a standard (1, 3, 10, 30, and 100 μM final concentrations). A blank using 80% MeOH solution instead of the corresponding antioxidant was used in each assay. Two independent measurements of each sample were performed. Data were processed using Origin software, and sigmoidal fitting according to the DoseResp function was performed to extrapolate the IC50 (μM) of each antioxidant.

[4] = MTT viability assay; format: cell-based, human; details: human, HEK293T cells, HEK293T, 16 h, read-out: Cell viability (MTT)
Protocol: (§1) HEK293T cells were plated in 24-well culture plates (75,000 cells/well) and incubated in a CO2 incubator. The next day, treatment was given according to the experimental requirement. Sixteen hours later, 50 μL of MTT solutions from the stock (5 mg/mL) was added, and cells were incubated in a CO2 incubator in the dark for 2 h. The medium was removed, and formazan crystals formed by the cells were dissolved using 500 μL of DMSO followed by transfer in 96-well plates. The absorbance was read at a 570 nm wavelength on a multiwell plate reader.[70]

[5] = test system: HEK293T cells; assay: MTT viability assay; format: cell-based, human; details: 20 µM, Table S3
Protocol: as §1

[6] = 20 microM, supplementary CSV, read-out: NRF2 induction @ 20 microM (fold change)
[7] = HEK-293T, HEK293T, read-out: Luciferase assay response
[8] = HEK-293T, 20 µM, HEK293T, read-out: Luciferase assay response

Sequence of ROCK-II (ROKa) (Q62868 2-543 limits assumed): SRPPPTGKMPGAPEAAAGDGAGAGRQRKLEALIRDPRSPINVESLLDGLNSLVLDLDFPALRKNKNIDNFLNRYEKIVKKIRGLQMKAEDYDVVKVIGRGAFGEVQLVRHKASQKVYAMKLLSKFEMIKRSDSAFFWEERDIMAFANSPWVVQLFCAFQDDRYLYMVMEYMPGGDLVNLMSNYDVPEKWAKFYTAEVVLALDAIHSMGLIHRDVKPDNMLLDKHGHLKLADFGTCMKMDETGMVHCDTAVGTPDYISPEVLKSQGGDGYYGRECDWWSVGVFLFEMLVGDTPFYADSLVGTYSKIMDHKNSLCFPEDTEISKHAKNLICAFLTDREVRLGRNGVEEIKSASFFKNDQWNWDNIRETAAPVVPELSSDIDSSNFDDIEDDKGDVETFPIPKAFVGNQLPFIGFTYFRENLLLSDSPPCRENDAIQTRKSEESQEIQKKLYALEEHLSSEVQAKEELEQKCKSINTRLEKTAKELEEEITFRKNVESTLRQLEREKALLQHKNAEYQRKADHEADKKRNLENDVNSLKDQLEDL

SMILES: COc1cc(/C=C/C(=O)N2CCN(S(=O)(=O)c3cccc4cnccc34)CC2)ccc1O [Compound 1e, 3-(4-Hydroxy-3-methoxyphenyl)-1-(4-(isoquinolin-5-ylsulfonyl)piperazin-1-yl)prop-2-en-1-one]
- melting point: > 230 °C
- fold induction at 20 µM [1, 6]: 1.1 ± 0.16
- fold induction at 6 µM [1, 7]: 1.2 ± 0.11
- fold induction at 20 µM [1, 8]: 1.1 ± 0.16
- fold induction at 60 µM [1, 7]: 1.2 ± 0.14
- remaining activity at 10 µM [2]: 47 ± 15.1%
- IC50 [2]: 2.33 µM
- EC50 [3]: 6.42 µM
- viability at 16 h, 20 µM [4]: 60.5 ± 2.73%
- viability at 16 h, 60 µM [4]: 55.9 ± 1.08%

SMILES: Cc1c(C)c2c(c(C)c1O)CCC(C)(C(=O)O)O2 (centres unmarked) [Trolox, reference compound]
- IC50 [3]: 12 ± 2.3 µM

SMILES: O=C(O)/C=C/c1ccc(O)c(O)c1 [caffeic acid, reference compound]
- EC50 [3]: 12.1 µM

SMILES: O=C(CCc1ccc(O)c(O)c1)N1CCN(S(=O)(=O)c2cccc3cnccc23)CC1 [Compound 1c, 3-(3,4-Dihydroxyphenyl)-1-(4-(isoquinolin-5-ylsulfonyl)piperazin-1-yl)propan-1-one]
- melting point: 158 to 159 °C
- NRF2 induction, CD (concentration needed to double luciferase expression) ([1]; HEK293T): 15 µM
- fold induction at 20 µM [1, 6]: 2.2 ± 0.09
- fold induction at 6 µM [1, 7]: 1.7 ± 0.09
- fold induction at 20 µM [1, 8]: 2.2 ± 0.09
- fold induction at 60 µM [1, 7]: 5.8 ± 0.23
- activation of the NRF2 reporter [1]: dose-dependent activation
- remaining activity at 10 µM [2]: 32.6 ± 10.3%
- IC50 [2]: 0.32 µM
- ROCK2 inhibition potency compared with fasudil [2]: potency similar to the reference compound
- EC50 [3]: 10.1 µM
- IC50 [3]: 11.9 ± 3 µM
- viability at 16 h, 20 µM [4]: 104 ± 1.2%
- viability at 16 h, 60 µM [4]: 104.8 ± 0.434%

SMILES: C[S+]([O-])CCCCN=C=S (centres unmarked) [SFN, sulforaphane, reference compound]
- fold induction at 6 µM [1, 7]: 4 ± 0.08

SMILES: COc1cc(/C=C/C(=O)N2CCCN(S(=O)(=O)c3cccc4cnccc34)CC2)ccc1O [Compound 1f, 3-(4-Hydroxy-3-methoxyphenyl)-1-(4-(isoquinolin-5-ylsulfonyl)-1,4-diazepan-1-yl)prop-2-en-1-one]
- fold induction at 20 µM [1, 6]: 0.8 ± 0.02
- fold induction at 6 µM [1, 7]: 0.7 ± 0.06
- fold induction at 20 µM [1, 8]: 0.8 ± 0.02
- fold induction at 60 µM [1, 7]: 1.2 ± 0.08
- remaining activity at 10 µM [2]: 30.3 ± 7.4%
- IC50 [2]: 2.61 µM
- EC50 [3]: 9.61 µM
- viability at 16 h, 20 µM [4]: 93.9 ± 2.27%
- viability at 16 h, 60 µM [4]: 77.9 ± 3.9%
- MTT (%) [5]: < 20%

SMILES: COc1cc(/C=C/C(=O)O)ccc1O [ferulic acid, reference compound]
- EC50 [3]: 22.8 µM

SMILES: O=C(/C=C/c1ccc(O)c(O)c1)N1CCN(S(=O)(=O)c2cccc3cnccc23)CC1 [Compound 1a, 3-(3,4-Dihydroxyphenyl)-1-(4-(isoquinolin-5-ylsulfonyl)piperazin-1-yl)prop-2-en-1-one]
- melting point: 161 to 162 °C
- fold induction at 20 µM [1, 6]: 0.8 ± 0.02
- fold induction at 6 µM [1, 7]: 0.7 ± 0.06
- fold induction at 20 µM [1, 8]: 0.8 ± 0.02
- fold induction at 60 µM [1, 7]: 1.2 ± 0.08
- remaining activity at 10 µM [2]: 13.7 ± 1%
- IC50 [2]: 0.79 µM
- ROCK2 inhibition potency compared with fasudil [2]: potency similar to the reference compound
- EC50 [3]: 9.93 µM
- IC50 [3]: 11.9 ± 4.9 µM
- viability at 16 h, 20 µM [4]: 90.9 ± 1.63%
- viability at 16 h, 60 µM [4]: 100.7 ± 0.999%
- MTT (%) [5]: < 20%

SMILES: COC(=O)/C=C/C(=O)OC [DMF, dimethyl fumarate, reference compound]
- fold induction at 20 µM [1, 6]: 4.9 ± 0.35
- fold induction at 20 µM [1, 8]: 4.9 ± 0.35
- viability at 16 h, 20 µM [4]: 90.4 ± 6.96%
- viability at 16 h, 60 µM [4]: 92.21 ± 0.462%

SMILES: COc1cc(CCC(=O)N2CCCN(S(=O)(=O)c3cccc4cnccc34)CC2)ccc1O [Compound 1h, 3-(4-Hydroxy-3-methoxyphenyl)-1-(4-(isoquinolin-5-ylsulfonyl)-1,4-diazepan-1-yl)propan-1-one]
- fold induction at 20 µM [1, 6]: 0.9 ± 0.02
- fold induction at 6 µM [1, 7]: 1.2 ± 0.09
- fold induction at 20 µM [1, 8]: 0.9 ± 0.02
- fold induction at 60 µM [1, 7]: 1.2 ± 0.03
- remaining activity at 10 µM [2]: 27.4 ± 1.4%
- IC50 [2]: 0.9 µM
- EC50 [3]: 12 µM
- viability at 16 h, 20 µM [4]: 99.4 ± 1.78%
- viability at 16 h, 60 µM [4]: 88.2 ± 2.43%

SMILES: O=S(=O)(c1cccc2cnccc12)N1CCCNCC1 [fasudil, 5-((1,4-Diazepan-1-yl)sulfonyl)isoquinoline, reference compound]
- fold induction at 20 µM [1, 6]: 1 ± 0.06
- fold induction at 6 µM [1, 7]: 1.3 ± 0.21
- fold induction at 20 µM [1, 8]: 1 ± 0.06
- fold induction at 60 µM [1, 7]: 2.9 ± 0.49
- activation of the NRF2 reporter [1]: low activity
- viability at 16 h, 20 µM [4]: 92.1 ± 3.71%
- viability at 16 h, 60 µM [4]: 83.43 ± 0.715%

SMILES: O=C(/C=C/c1ccc(O)c(O)c1)N1CCCN(S(=O)(=O)c2cccc3cnccc23)CC1 [Compound 1b, 3-(3,4-Dihydroxyphenyl)-1-(4-(isoquinolin-5-ylsulfonyl)-1,4-diazepan-1-yl)prop-2-en-1-one]
- NRF2 induction, CD (concentration needed to double luciferase expression) ([1]; HEK293T): 12 µM
- fold induction at 20 µM [1, 6]: 3.1 ± 0.04
- fold induction at 20 µM [1, 8]: 3.1 ± 0.04
- fold induction at 60 µM [1, 7]: 4.1 ± 0.06
- activation of the NRF2 reporter [1]: dose-dependent activation
- remaining activity at 10 µM [2]: 7.8 ± 1%
- IC50 [2]: 2.13 µM
- EC50 [3]: 10 µM
- IC50 [3]: 9.9 ± 1.4 µM
- viability at 16 h, 20 µM [4]: 96.9 ± 1.13%
- viability at 16 h, 60 µM [4]: 84.7 ± 1.83%

SMILES: COc1cc(CCC(=O)N2CCN(S(=O)(=O)c3cccc4cnccc34)CC2)ccc1O [Compound 1g, 3-(4-Hydroxy-3-methoxyphenyl)-1-(4-(isoquinolin-5-ylsulfonyl)piperazin-1-yl)propan-1-one]
- melting point: 156 to 157 °C
- fold induction at 20 µM [1, 6]: 0.8 ± 0.04
- fold induction at 6 µM [1, 7]: 1 ± 0.01
- fold induction at 20 µM [1, 8]: 0.8 ± 0.04
- fold induction at 60 µM [1, 7]: 1.5 ± 0.22
- remaining activity at 10 µM [2]: 53 ± 8.8%
- IC50 [2]: > 10 µM
- EC50 [3]: 10.3 µM
- viability at 16 h, 20 µM [4]: 93.7 ± 2.2%
- viability at 16 h, 60 µM [4]: 87.5 ± 2.32%
